Measurements taken from US9783527B2, “Indazole ureas and method of use” (AbbVie Inc., priority 2014, dated 2017).

Molecular target: human Nav1.7 (Homo sapiens (Human), UniProt Q15858)
Assay: FRET-based membrane potential assay, recombinant human sodium channel Nav1.7
Format: cell-based
Details: HEK293 cells stably expressing recombinant human Nav1.7; depolarization with veratridine (EC80) + scorpion venom
Outline: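 IC50 derived by four-parameter Hill fit of percent inhibition of depolarization, measured as peak F440-480/F565-625 ratio over baseline. Stable human Nav1.7 HEK293 cells, dye-loaded with CC2-DMPE and DiSBAC2(3)/VABSC-1 at room temperature, received compound 3 min ahead of veratridine (EC80) plus scorpion venom.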

Sequence of human Nav1.7 (Q15858 whole entry): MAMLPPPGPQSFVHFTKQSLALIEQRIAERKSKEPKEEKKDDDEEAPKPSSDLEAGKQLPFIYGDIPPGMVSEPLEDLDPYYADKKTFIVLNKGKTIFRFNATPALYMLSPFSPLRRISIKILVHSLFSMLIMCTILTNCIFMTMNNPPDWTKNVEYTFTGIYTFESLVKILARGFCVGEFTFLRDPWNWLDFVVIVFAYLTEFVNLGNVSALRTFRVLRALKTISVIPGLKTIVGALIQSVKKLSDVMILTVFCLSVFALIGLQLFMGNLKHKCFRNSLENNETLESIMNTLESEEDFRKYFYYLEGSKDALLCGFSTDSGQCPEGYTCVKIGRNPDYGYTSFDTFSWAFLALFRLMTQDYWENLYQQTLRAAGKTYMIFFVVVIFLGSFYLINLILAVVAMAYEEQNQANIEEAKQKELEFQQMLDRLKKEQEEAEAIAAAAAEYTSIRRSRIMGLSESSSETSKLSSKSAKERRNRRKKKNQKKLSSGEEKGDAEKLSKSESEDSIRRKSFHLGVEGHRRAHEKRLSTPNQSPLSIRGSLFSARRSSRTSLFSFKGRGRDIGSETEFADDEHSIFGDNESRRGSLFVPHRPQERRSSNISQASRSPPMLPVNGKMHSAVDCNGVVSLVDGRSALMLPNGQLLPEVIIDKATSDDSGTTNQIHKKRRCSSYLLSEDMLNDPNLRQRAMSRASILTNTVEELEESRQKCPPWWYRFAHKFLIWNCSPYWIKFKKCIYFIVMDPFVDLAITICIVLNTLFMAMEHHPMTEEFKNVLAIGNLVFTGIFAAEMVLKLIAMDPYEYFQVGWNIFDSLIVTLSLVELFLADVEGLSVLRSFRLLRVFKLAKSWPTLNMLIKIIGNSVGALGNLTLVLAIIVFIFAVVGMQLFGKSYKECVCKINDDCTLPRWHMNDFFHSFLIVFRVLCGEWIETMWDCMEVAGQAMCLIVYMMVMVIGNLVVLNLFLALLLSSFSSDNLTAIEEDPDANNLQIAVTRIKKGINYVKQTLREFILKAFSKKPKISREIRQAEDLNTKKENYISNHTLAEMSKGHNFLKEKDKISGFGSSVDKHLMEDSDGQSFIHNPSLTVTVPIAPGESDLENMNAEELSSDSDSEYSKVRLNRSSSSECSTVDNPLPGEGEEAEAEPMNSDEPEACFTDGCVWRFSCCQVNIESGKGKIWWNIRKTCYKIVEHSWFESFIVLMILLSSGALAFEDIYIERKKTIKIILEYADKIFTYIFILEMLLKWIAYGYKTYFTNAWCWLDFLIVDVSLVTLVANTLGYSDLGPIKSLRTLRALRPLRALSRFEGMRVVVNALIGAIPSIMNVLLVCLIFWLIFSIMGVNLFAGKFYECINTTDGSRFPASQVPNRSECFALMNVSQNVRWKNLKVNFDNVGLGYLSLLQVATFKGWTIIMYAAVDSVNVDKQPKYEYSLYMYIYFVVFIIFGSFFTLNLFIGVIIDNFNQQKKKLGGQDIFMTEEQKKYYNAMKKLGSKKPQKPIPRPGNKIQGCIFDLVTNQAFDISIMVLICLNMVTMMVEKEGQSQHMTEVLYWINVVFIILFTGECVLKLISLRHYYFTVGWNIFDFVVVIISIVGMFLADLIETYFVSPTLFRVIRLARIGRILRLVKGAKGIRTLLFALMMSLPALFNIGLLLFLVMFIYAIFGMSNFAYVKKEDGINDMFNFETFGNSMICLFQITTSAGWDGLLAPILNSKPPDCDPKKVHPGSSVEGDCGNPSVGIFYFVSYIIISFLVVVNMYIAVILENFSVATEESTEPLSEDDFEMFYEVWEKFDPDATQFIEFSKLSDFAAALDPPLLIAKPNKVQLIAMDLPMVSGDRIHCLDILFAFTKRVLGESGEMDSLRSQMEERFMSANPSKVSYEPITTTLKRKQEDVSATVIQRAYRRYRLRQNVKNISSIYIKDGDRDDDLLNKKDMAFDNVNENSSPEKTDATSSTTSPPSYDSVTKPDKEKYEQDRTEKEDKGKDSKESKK

Structure (SMILES)	IC50 [µM]
O=C1N(c2cccc3c2cnn3-c2ccccc2F)CCN1c1cnn2cccnc12 [Example 190, 1-[1-(2-fluorophenyl)-1H-indazol-4-yl]-3-(pyrazolo[1,5-a]pyrimidin-3-yl)imidazolidin-2-one]	1.09
Cn1cc2cc(N3CCN(c4cccc5c4cnn5-c4ccccc4F)C3=O)ccc2n1 [Example 191, 1-[1-(2-fluorophenyl)-1H-indazol-4-yl]-3-(2-methyl-2H-indazol-5-yl)imidazolidin-2-one]	2.95
O=C1N(c2ccc(C3CC3)o2)CCN1c1cccc2c1cnn2-c1ccccc1F [Example 192, 1-(5-cyclopropyl-2-furyl)-3-[1-(2-fluorophenyl)-1H-indazol-4-yl]imidazolidin-2-one]	1.36
O=C1N(CCc2ccccc2)CCN1c1cccc2c1cnn2-c1ccccc1F [Example 193, 1-[1-(2-fluorophenyl)-1H-indazol-4-yl]-3-(2-phenylethyl)imidazolidin-2-one]	0.998
O=C1N(CC2CC2)CCN1c1cccc2c1cnn2-c1ccccc1F [Example 194, 1-(cyclopropylmethyl)-3-[1-(2-fluorophenyl)-1H-indazol-4-yl]imidazolidin-2-one]	0.613
C[C@@]1(c2cccc(F)c2)C[C@H](N2CCN(c3cccc4c3cnn4-c3ccccc3F)C2=O)CO1 [Example 195, 2,5-anhydro-1,3,4-trideoxy-2-(3-fluorophenyl)-4-{3-[1-(2-fluorophenyl)-1H-indazol-4-yl]-2-oxoimidazolidin-1-yl}-D-erythro-pentitol]	1.39
O=C1N(c2cccc3c2cnn3-c2ccccc2F)CCN1[C@H]1CO[C@H](c2cccc(F)c2)C1 [Example 196, 1-[1-(2-fluorophenyl)-1H-indazol-4-yl]-3-[(3R,5S)-5-(3-fluorophenyl)tetrahydrofuran-3-yl]imidazolidin-2-one]	4.31
O=C1N(Cc2cc(F)ccc2F)CCN1c1cccc2c1cnn2-c1ccccc1F [Example 197, 1-(2,5-difluorobenzyl)-3-[1-(2-fluorophenyl)-1H-indazol-4-yl]imidazolidin-2-one]	2.14
O=C1N(Cc2cccnc2)CCN1c1cccc2c1cnn2-c1ccccc1F [Example 198, 1-[1-(2-fluorophenyl)-1H-indazol-4-yl]-3-(pyridin-3-ylmethyl)imidazolidin-2-one]	1.24
Cc1cc(CN2CCN(c3cccc4c3cnn4-c3ccccc3F)C2=O)no1 [Example 199, 1-[1-(2-fluorophenyl)-1H-indazol-4-yl]-3-[(5-methyl-1,2-oxazol-3-yl)methyl]imidazolidin-2-one]	2.97
O=C1N(CC2COC2)CCN1c1cccc2c1cnn2-c1ccccc1F [Example 200, 1-[1-(2-fluorophenyl)-1H-indazol-4-yl]-3-(oxetan-3-ylmethyl)imidazolidin-2-one]	3.61
N#C[C@H]1CCCN1C(=O)CN1CCN(c2cccc3c2cnn3-c2ccccc2F)C1=O [Example 201, (2R)-1-({3-[1-(2-fluorophenyl)-1H-indazol-4-yl]-2-oxoimidazolidin-1-yl}acetyl)pyrrolidine-2-carbonitrile]	0.661
O=C1N(CC(=O)N2CC3CCC2C3)CCN1c1cccc2c1cnn2-c1ccccc1F (stereo not shown) [Example 202, 1-[2-(2-azabicyclo[2.2.1]hept-2-yl)-2-oxoethyl]-3-[1-(2-fluorophenyl)-1H-indazol-4-yl]imidazolidin-2-one]	0.681
C[C@@]1(c2cccc(F)c2)C[C@@H](N2CCN(c3cccc4c3cnn4-c3ccccc3F)C2=O)CO1 [Example 203, 2,5-anhydro-1,3,4-trideoxy-2-(3-fluorophenyl)-4-{3-[1-(2-fluorophenyl)-1H-indazol-4-yl]-2-oxoimidazolidin-1-yl}-L-threo-pentitol]	3.67
O=C1N(c2cccc3c2cnn3-c2ccccc2F)CCN1C1CCC(O)C1 (stereo not shown) [Example 204, 1-[1-(2-fluorophenyl)-1H-indazol-4-yl]-3-(3-hydroxycyclopentyl)imidazolidin-2-one]	3.41
O=C(CN1CCN(c2cccc3c2cnn3-c2ccccc2F)C1=O)N1CC(F)C(F)C1 (stereo not shown) [Example 206, 1-[2-(3,4-difluoropyrrolidin-1-yl)-2-oxoethyl]-3-[1-(2-fluorophenyl)-1H-indazol-4-yl]imidazolidin-2-one]	1.06
O=C1N(c2cncc(N3CCOCC3)c2)CCN1c1cccc2c1cnn2-c1ccccc1F [Example 207, 1-[1-(2-fluorophenyl)-1H-indazol-4-yl]-3-[5-(morpholin-4-yl)pyridin-3-yl]imidazolidin-2-one]	1.87
O=C1N(c2cccnn2)CCN1c1cccc2c1cnn2-c1ccccc1F [Example 208, 1-[1-(2-fluorophenyl)-1H-indazol-4-yl]-3-(pyridazin-3-yl)imidazolidin-2-one]	3.26
O=C(CN1CCN(c2cccc3c2cnn3-c2ccccc2F)C1=O)NCC1CC1 [Example 209, N-(cyclopropylmethyl)-2-{3-[1-(2-fluorophenyl)-1H-indazol-4-yl]-2-oxoimidazolidin-1-yl}acetamide]	1.06
O=C1N(Cc2ccncc2)CCN1c1cccc2c1cnn2-c1ccccc1F [Example 210, 1-[1-(2-fluorophenyl)-1H-indazol-4-yl]-3-(pyridin-4-ylmethyl)imidazolidin-2-one]	3.33
Cc1nc(CN2CCN(c3cccc4c3cnn4-c3ccccc3F)C2=O)co1 [Example 211, 1-[1-(2-fluorophenyl)-1H-indazol-4-yl]-3-[(2-methyl-1,3-oxazol-4-yl)methyl]imidazolidin-2-one]	1.9
O=C1N(CC(=O)N2[C@H]3CC[C@@H]2CC3)CCN1c1cccc2c1cnn2-c1ccccc1F [Example 212, 1-{2-[(1s,4s)-7-azabicyclo[2.2.1]hept-7-yl]-2-oxoethyl}-3-[1-(2-fluorophenyl)-1H-indazol-4-yl]imidazolidin-2-one]	1.14
CC1(CN2CCN(c3cccc4c3cnn4-c3ccccc3F)C2=O)COC1 [Example 213, 1-[1-(2-fluorophenyl)-1H-indazol-4-yl]-3-[(3-methyloxetan-3-yl)methyl]imidazolidin-2-one]	3.65
CO[C@H](CC(C)C)CN1CCN(c2cccc3c2cnn3-c2ccccc2F)C1=O [Example 214, 1-[1-(2-fluorophenyl)-1H-indazol-4-yl]-3-[(2R)-2-methoxy-4-methylpentyl]imidazolidin-2-one]	2.02
CO[C@@H](CC(C)C)CN1CCN(c2cccc3c2cnn3-c2ccccc2F)C1=O [Example 215, 1-[1-(2-fluorophenyl)-1H-indazol-4-yl]-3-[(2S)-2-methoxy-4-methylpentyl]imidazolidin-2-one]	1.08
CC(=O)N1CC(CN2CCN(c3cccc4c3cnn4-c3ccccc3F)C2=O)C1 [Example 216, 1-[(1-acetylazetidin-3-yl)methyl]-3-[1-(2-fluorophenyl)-1H-indazol-4-yl]imidazolidin-2-one]	20
Cc1nc(CN2CCN(c3cccc4c3cnn4-c3ccccc3F)C2=O)cs1 [Example 217, 1-[1-(2-fluorophenyl)-1H-indazol-4-yl]-3-[(2-methyl-1,3-thiazol-4-yl)methyl]imidazolidin-2-one]	1.07
O=C1N(Cc2ncccn2)CCN1c1cccc2c1cnn2-c1ccccc1F [Example 218, 1-[1-(2-fluorophenyl)-1H-indazol-4-yl]-3-(pyrimidin-2-ylmethyl)imidazolidin-2-one]	2.76
